Activity calls are given as the source filed them. No cut-off for these calls is given here.
Columns and labels:
[1] = Octanol-water partition coefficient, log P of the compound
Rattus norvegicus [2] = assay: Antihypertensive activity in Wistar rat invasive arterial pressure model assessed as reduction of systolic pressure at 1 mg/kg, iv; format: functional, organism-based; parameters: dose 1 mg/kg; conditions: Artery
Rattus norvegicus [3] = assay: Antiarrhythmic activity in Wistar rat invasive arterial pressure model assessed as reduction of heart rate at 0.1 mg/kg, iv; format: functional, organism-based; parameters: dose 0.1 mg/kg
Rattus norvegicus [4] = assay: Antihypertensive activity in Wistar rat invasive arterial pressure model assessed as reduction of diastolic pressure at 1 mg/kg, iv; format: functional, organism-based; parameters: dose 1 mg/kg; conditions: Artery
Rattus norvegicus [5] = assay: Antihypertensive activity in spontaneous hypertensive rat model assessed as reduction of systolic pressure at 0.1 mg/kg, po after 120 mins; format: functional, organism-based; parameters: dose 0.1 mg/kg
Rattus norvegicus [6] = assay: Antihypertensive activity in spontaneous hypertensive rat model assessed as reduction of systolic pressure at 0.1 mg/kg, po after 50 mins; format: functional, organism-based; parameters: dose 0.1 mg/kg
Rattus norvegicus [7] = assay: Antihypertensive activity in spontaneous hypertensive rat model assessed as reduction of diastolic pressure at 0.1 mg/kg, po after 120 mins; format: functional, organism-based; parameters: dose 0.1 mg/kg
Rattus norvegicus [8] = assay: Antihypertensive activity in spontaneous hypertensive rat model assessed as reduction of diastolic pressure at 0.1 mg/kg, po after 50 mins; format: functional, organism-based; parameters: dose 0.1 mg/kg
Rattus norvegicus [9] = assay: Antihypertensive activity in Wistar rat invasive arterial pressure model assessed as reduction of systolic pressure at 0.1 mg/kg, iv; format: functional, organism-based; parameters: dose 0.1 mg/kg; conditions: Artery
Rattus norvegicus [10] = assay: Antihypertensive activity in Wistar rat invasive arterial pressure model assessed as reduction of diastolic pressure at 0.1 mg/kg, iv; format: functional, organism-based; parameters: dose 0.1 mg/kg; conditions: Artery
Rattus norvegicus [11] = assay: Antiarrhythmic activity in spontaneous hypertensive rat model assessed as reduction of heart rate at 0.1 mg/kg, po after 40 mins; format: functional, organism-based; parameters: dose 0.1 mg/kg
Rattus norvegicus [12] = assay: Antiarrhythmic activity in spontaneous hypertensive rat model assessed as reduction of heart rate at 0.1 mg/kg, po after 120 mins; format: functional, organism-based; parameters: dose 0.1 mg/kg

SMILES | logP [1] | Activity (Rattus norvegicus [2]) | Activity (Rattus norvegicus [3]) | Activity (Rattus norvegicus [4]) | also measured
Oc1ccc(Cl)cc1CN1CCSCC1 | > 3.05 | Active | Active | Active | 
CC(C)(C)c1ccc(O)c(CN2CCSCC2)c1 | 1.96 | Active | Active | Active | 
CCOC(=O)C1=C(C)NC(C)=C(C(=O)OCC)C1c1cc(CN2CCOCC2)c(O)c(CN2CCOCC2)c1 | 2.7 |  | Active |  | Activity (Rattus norvegicus [5]): Active; Activity (Rattus norvegicus [6]): Active; Activity (Rattus norvegicus [7]): Active; Activity (Rattus norvegicus [8]): Active; Activity (Rattus norvegicus [9]): Active; Activity (Rattus norvegicus [10]): Active; Activity (Rattus norvegicus [11]): Active; Activity (Rattus norvegicus [12]): Active
CC(C)(C)c1cc(CN2CCSCC2)c(O)c(CN2CCSCC2)c1 | 2.03 | Active | Active | Active | 

Now from value to compound, other results behind:

logP [1] | SMILES | Activity (Rattus norvegicus [2]) | Activity (Rattus norvegicus [3]) | Activity (Rattus norvegicus [4]) | also measured
4.01 | CCCCc1nc(Cl)c(CO)n1Cc1ccc(-c2ccccc2-c2nn[nH]n2)cc1 [LOSARTAN] |  |  |  | 
1.02 | C[C@H](CS)C(=O)N1CCC[C@H]1C(=O)O [CAPTOPRIL] |  |  |  | 
